Measured values as given in PubChem BioAssay (NCI).
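The compound was tested at five concentrations on cells cultured in 96-well plates, with a 48-hour exposure period. GI50 is the concentration that inhibits growth by half. TGI: concentration producing complete growth inhibition.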

Key:
Assay in all cases: DTP human tumour cell line panel, 48 h
BT-549 breast = system: BT-549 breast
HL-60(TB) leukemia = system: HL-60(TB) leukemia
TK-10 renal = system: TK-10 renal
T-47D breast = system: T-47D breast
LOX IMVI melanoma = system: LOX IMVI melanoma
HOP-62 NSCLC = system: HOP-62 NSCLC
NCI-H460 lung = system: NCI-H460 lung
SNB-19 CNS = system: SNB-19 CNS
K-562 leukemia = system: K-562 leukemia
U251 CNS = system: U251 CNS

| SMILES | GI50 (BT-549 breast) | TGI (BT-549 breast) | GI50 (HL-60(TB) leukemia) | TGI (HL-60(TB) leukemia) | GI50 (TK-10 renal) | TGI (TK-10 renal) | GI50 (T-47D breast) | TGI (T-47D breast) | GI50 (LOX IMVI melanoma) | TGI (LOX IMVI melanoma) | GI50 (HOP-62 NSCLC) | TGI (HOP-62 NSCLC) | GI50 (NCI-H460 lung) | TGI (NCI-H460 lung) | GI50 (SNB-19 CNS) | TGI (SNB-19 CNS) | GI50 (K-562 leukemia) | TGI (K-562 leukemia) | GI50 (U251 CNS) | TGI (U251 CNS) |
| --- | --- | --- | --- | --- | --- | --- | --- | --- | --- | --- | --- | --- | --- | --- | --- | --- | --- | --- | --- | --- |
| O=C(N[C@@H](Cc1coc2ccccc12)B(O)O)[C@@H]1C[C@H]2CC[C@@H]1O2 | 3.07 µM | 42.2 µM | 3.05 µM | > 100 µM | 2.44 µM | 11.5 µM | 2.77 µM | > 100 µM | 5.21 µM | 34.5 µM | 3.65 µM | 43.6 µM | 30.7 µM | > 100 µM | 4.98 µM | > 100 µM | 9.99 µM | > 100 µM | 17.8 µM | > 100 µM |
| COc1ccc2c(c1)c(-c1nc(-c3c[nH]c4ncccc34)cs1)cn2CCCCN1CCCCC1 | 1.66 µM | 3.13 µM | 1.72 µM | 3.54 µM | 1.51 µM | 2.93 µM | – | – | – | – | 1.48 µM | 2.95 µM | 1.81 µM | 3.5 µM | – | – | 1.61 µM | 3.49 µM | – | – |
| CNC(C)C(O)c1ccc2oc3cc(=O)c4ccccc4c-3nc2c1 (stereo not given) | – | > 100 µM | – | > 100 µM | – | > 100 µM | – | 98.4 µM | – | 26.7 µM | – | 18.1 µM | – | 61.4 µM | – | > 100 µM | – | > 100 µM | – | 22.4 µM |
| Nc1nc(SCc2ccccc2Cl)c2[nH]cnc2n1 | – | – | – | > 100 µM | – | 67 µM | – | – | – | > 100 µM | – | > 100 µM | – | > 100 µM | – | > 100 µM | – | > 100 µM | – | > 100 µM |
| C=CCCC1(C)CCCNC1=S (stereo not given) | – | – | – | > 100 µM | – | > 100 µM | – | – | – | > 100 µM | – | > 100 µM | – | > 100 µM | – | > 100 µM | – | > 100 µM | – | > 100 µM |
| CCOC(=O)c1sc2nc(SC)nc(Nc3ccc4c(c3)OCCO4)c2c1N | – | 32 µM | – | > 100 µM | – | 30.3 µM | – | 26.2 µM | – | > 100 µM | – | 29.5 µM | – | > 100 µM | – | > 100 µM | – | > 100 µM | – | 21.2 µM |
| CCCO[C@@H]1[C@@H](OC(C)=O)[C@@H](OC(C)=O)C(C)(C)/C=C/[C@H](C)C(=O)[C@@]2(OC(C)=O)C[C@@](C)(OC(C)=O)[C@H](OC(C)=O)[C@@H]2[C@H]2OC(=O)CC[C@@]12OC(=O)c1ccccc1 | – | > 25 µM | – | > 25 µM | – | > 25 µM | – | > 25 µM | – | > 25 µM | – | > 25 µM | – | > 25 µM | – | > 25 µM | – | > 25 µM | – | > 25 µM |
| O=C1c2ccccc2OCC12OC21C=CC(Cl)=CC1 (stereo not given) | – | 83.7 µM | – | 37.3 µM | – | > 100 µM | – | – | – | 30.4 µM | – | 92.1 µM | – | 47.9 µM | – | 80.3 µM | – | > 100 µM | – | 44.4 µM |
| CCC(=O)OCN(C)c1nc(N(C)COC(=O)CC)nc(N(C)COC(=O)CC)n1 | – | > 100 µM | – | – | – | > 100 µM | – | > 100 µM | – | 70.3 µM | – | > 100 µM | – | > 100 µM | – | > 100 µM | – | > 100 µM | – | > 100 µM |
| Cc1nc2ccc(S(=O)(=O)Nc3nccs3)cc2c(=O)n1NS(=O)(=O)c1nccs1 | – | > 100 µM | – | > 100 µM | – | > 100 µM | – | > 100 µM | – | – | – | > 100 µM | – | > 100 µM | – | > 100 µM | – | > 100 µM | – | > 100 µM |
| CCCCC1C=Cn2c(=O)oc3c(OC(C)C)c(C)c(O)c1c32 (stereo not given) | – | 13.4 µM | – | 1.88 µM | – | 18.7 µM | – | 5.93 µM | – | 5.52 µM | – | 10.5 µM | – | 8.39 µM | – | 13.3 µM | – | > 35.3 µM | – | 11 µM |
